Data published in US10730878B2, “Fused quinoline compounds as PI3K/mTOR inhibitors” (ADVENCHEN PHARMACEUTICALS, LLC, priority 2015, dated 2020).

Legend:
mTor = target: T1, mTor (Homo sapiens, UniProt P42345); experiment: mTor kinase inhibition, % activity at 0.03 μM (kinases panel screening); type: biochemical; conditions: 0.03 μM compound
T1 construct: purchased Millipore/Merck KGA of Europe (panel screening service)
Text: (§1) In vitro kinase inhibition activities included Pi3k and mTor activities can be tested with Millipore/Merck KGA of Europe in their kinases panel screening. Animal antitumor activity testing can be conducted by various cancer xenograft models for a compound of formula I. […]

pi3K = pi3K kinase inhibition, % activity at 0.03 μM (kinases panel screening); type: biochemical; conditions: 0.03 μM compound
Text: as §1

tumor cell lines = experiment: inhibition on tumor cell lines (drawing 11); type: cell-based; parameters: tumor cell line inhibition, first column under head drawing 11 / tumor cell line inhibition, third column under head drawing 11: unit not given here; conditions: head is a drawing, cell line and unit not readable; for tumor cell line inhibition, first column under head drawing 11: first of three columns; for tumor cell line inhibition, second column under head drawing 11: second of three columns; for tumor cell line inhibition, third column under head drawing 11: third of three columns
Protocol: The following compounds or a pharmaceutically acceptable salt thereof, but not limited, can also be prepared similarly according to the methods described in Scheme I-Scheme II. They are also tested for the inhibitions on mTor or pi3k kinases, or tumor cell lines.

Row | Compound | mTor % activity @0.03 μM (mTor) [%] | pi3K % activity @0.03 μM (pi3K) [%] | tumor cell line inhibition, first column under head drawing 11 (tumor cell lines) | tumor cell line inhibition, second column under head drawing 11 (tumor cell lines) | tumor cell line inhibition, third column under head drawing 11 (tumor cell lines)
1 | CC(C)(C#N)c1ccc(-n2c3c4cc(-c5ccc(N)nc5)ccc4ncc3n3cnnc23)cc1 [5-pyridin-2-amine; H; CH3, CH3; CN, 2-{4-[4-(6-aminopyridin-3-yl)-8,11,13,14,16-pentaazatetracyclo[8.6.0.0^2,^7.0^11,^1^5]hexadeca-1(10),2,4,6,8,12,14-heptaen-16-yl]phenyl}-2-methylpropanenitrile] | 45 | −16 | – | – | –
2 | N-(5-{16-[4-(1-cyano-1-methylethyl)phenyl]-8,11,13,14,16-pentaazatetracyclo[8.6.0.0^2,^7.0^11,^1^5]-hexadeca-1(10), 2,4,6,8,12,14-heptaen-4-yl)}pyridin-2-yl)-2-(methylamino)acetamide | 0 | 39 | – | – | –
3 | N-{5-[16-(4-tert-butylphenyl)-8,11,13,14,16-pentaazatetracyclo[8.6.0.0^2,^7.0^11,^1^5]hexadeca-1(10),2,4,6,8,12,14-heptaen-4-yl]pyridin-2-yl}-2-(pyrrolidin-1-yl)acetamide | 27 | 88 | – | – | –
4 | CC(C)(C#N)c1ccc(-n2c3c4cc(-c5cnc(N)cc5C(F)(F)F)ccc4ncc3n3cnnc23)cc1 [2-(4-{4-[6-amino-4-(trifluoromethyl)pyridin-3-yl]-8,11,13,14,16-pentaazatetracyclo-[8.6.0.0^2,^7.0^11,^1^5]hexadec-1(10),2,4,6,8,12,14-heptaen-16-yl}phenyl)-2-methylpropanenitrile] | 87 | 65 | – | – | –
5 | N-(5-{16-[4-(1-cyano-1-methylethyl)phenyl]-8,11,13,14,16-pentaazatetracyclo[8.6.0.0^2,^7.0^11,^1^5]-hexadeca-1(10), 2,4,6,8,12,14-heptaen-4-yl)}pyridin-2-yl)-2-(oxan-4-ylamino)acetamide | −1 | 68 | – | – | –
6 | N-(5-{16-[4-(1-cyano-1-methylethyl)phenyl]-8,11,13,14,16-pentaazatetracyclo[8.6.0.0^2,^7.0^11,^1^5]-hexadeca-1(10), 2,4,6,8,12,14-heptaen-4-yl)}pyridin-2-yl)-2-(cyclohexylamino)acetamide | 3 | 79 | – | – | –
7 | Cc1nnc2n(-c3ccc(C(C)(C)C)cc3)c3c4cc(-c5cnc(N)cc5C(F)(F)F)ccc4ncc3n12 [5-[16-(4-tert-butylphenyl)-12-methyl-8,11,13,14,16-pentaazatetracyclo[8.6.0.0^2,^7.0^11,^1^5]hexa-deca-1(10), 2,4,6,8,12,14-heptaen-4-yl]-4-(trifluoromethyl)pyridin-2-amine] | 94 | 50 | – | – | –
8 | CCc1nnc2n(-c3ccc(C(C)(C)C)cc3)c3c4cc(-c5cccnc5)ccc4ncc3n12 [3-pyridine; CH2CH3; CH3, CH3; CH3, 16-(4-tert-butylphenyl)-12-ethyl-4-(pyridin-3-yl)-8,11,13,14,16-pentaazatetracyclo-[8.6.0.0^2,^7.0^11,^1^5]hexadec-1(10),2,4,6,8,12,14-heptaene] | 40 | 79 | – | – | –
9 | CCc1nnc2n(-c3ccc(C(C)(C)C)cc3)c3c4cc(-c5ccc(N)nc5)ccc4ncc3n12 [5-pyridin-2-amine; CH2CH3; CH3, CH3; CH3, 5-[16-(4-tert-butylphenyl)-12-ethyl-8,11,13,14,16-pentaazatetracyclo[8.6.0.0^2,^7.0^11,^1^5]hexadeca-1(10),2,4,6,8,12,14-heptaen-4-yl]pyridin-2-amine] | 20 | 40 | – | – | –
10 | 5-[16-(4-tert-butylphenyl)-12-ethyl-8,11,13,14,16-pentaazatetracyclo[8.6.0.0^2,^7.0^11,^1^5]hexadeca-1(10),2,4,6,8,12,14-heptaen-4-yl]-N-(2-methoxyethyl)pyridin-2-amine | 72 | 93 | – | – | –
11 | CC(C)(C#N)c1ccc(-n2c3c4cc(-c5cnc6ccccc6c5)ccc4ncc3n3cnnc23)cc1 [3-quinoline; H; CH3, CH3; CN, 2-methyl-2-{4-[4-(quinolin-3-yl)-8,11,13,14,16-pentaazatetracyclo[8.6.0.0^2,^7.0^11,^1^5]-hexadeca-1(10),2,4,6,8,12,14-heptaen-16-yl]phenyl}propanenitrile] | – | – | 10.3 | 8.7 | >23
12 | Cc1nnc2n(-c3ccc(C(C)(C)C#N)cc3)c3c4cc(-c5ccncc5)ccc4ncc3n12 [4-pyridine; CH3; CH3, CH3; CN, 2-methyl-2-{4-[12-methyl-4-(pyridin-4-yl)-8,11,13,14,16-pentaazatetracyclo[8.6.0.0^2,^7.0^11,^1^5]-hexadeca-1(10), 2,4,6,8,12,14-heptaen-16-yl]phenyl}propanenitrile] | – | – | 0.08 | 0.37 | 0.23
13 | N-(5-{16-[4-(1-cyano-1-methylethyl)phenyl]-8,11,13,14,16-pentaazatetracyclo[8.6.0.0^2,^7.0^11,^1^5]-hexadeca-1(10),2,4,6,8,12,14-heptaen-4-yl}pyridin-2-yl)-2-(cyclopentylamino)acetamide | −2 | 71 | – | – | –
14 | Cc1nnc2n(-c3ccc(C(C)(C)C#N)cc3)c3c4cc(-c5cccnc5)ccc4ncc3n12 [3-pyridine; CH3; CH3, CH3; CN, 2-methyl-2-{4-[12-methyl-4-(pyridin-3-yl)-8,11,13,14,16-pentaazatetracyclo-[8.6.0.0^2,^7.0^11,^1^5]-hexadeca-1(10),2,4,6,8,12,14-heptaen-16-yl]phenyl}propanenitrile] | 80 | – | 0.7 | 2.6 | 22
15 | CC(C)(C)c1ccc(-n2c3c4cc(-c5ccc(N)nc5)ccc4ncc3n3cnnc23)cc1 [5-pyridin-2-amine; H; CH3, CH3; CH3, 5-[16-(4-tert-butylphenyl)-8,11,13,14,16-pentaazatetracyclo[8.6.0.0^2,^7.0^11,^1^5]hexadeca-1(10),2,4,6,8,12,14-heptaen-4-yl]pyridin-2-amine] | – | −19 | – | – | –
16 | C#CC(C)(C)c1ccc(-n2c3c4cc(-c5ccccc5F)ccc4ncc3n3c(C)nnc23)cc1 [2-Fluorophenyl; CH3; CH3, CH3; CN, 4-(2-fluorophenyl)-12-methyl-16-[4-(2-methylbut-3-yn-2-yl)phenyl]-8,11,13,14,16-pentaaza-tetracyclo[8.6.0.0^2,^7.0^11,^1^5]hexadeca-1(10), 2,4,6,8,12,14-heptaene] | – | – | 0.6 | 2.2 | 2
17 | CC(C)(C)c1ccc(-n2c3c4cc(-c5cnc(N)cc5C(F)(F)F)ccc4ncc3n3cnnc23)cc1 [5-[16-(4-tert-butylphenyl)-8,11,13,14,16-pentaazatetracyclo[8.6.0.0^2,^7.0^11,^1^5]hexadeca-1(10),2,4,6,8,12,14-heptaen-4-yl]-4-(trifluoromethyl)pyridin-2-amine] | 83 | 30 | – | – | –
